In patent US4736067A, “New dimethyl derivatives of 3-nitro-4-aminoaniline, process for their preparation and their use for dyeing keratinic fibers” (L'Oreal, priority 1983, dated 1988):

Experiments:
[1] = Stability / storage of the nitro colorant in (oxidation) dyeing composition or reducing alkaline medium; assay type: physicochemical; conditions: oxidation dye composition with ammonia and sodium bisulphite (Examples 26, 27)

Structure (SMILES) | harmlessness (Harmlessness / toxicity) | stability of the nitro colorant in the liquid composition [1]
Cc1cc(N)c([N+](=O)[O-])c(C)c1N [2,6-dimethyl-3-nitroparaphenylenediamine] | particularly harmless | preserved
CNc1c(C)cc(N)c([N+](=O)[O-])c1C [4-amino-2,6-dimethyl-3-nitro-N-methylaniline] | particularly harmless | –
CCN(CC)CCNc1cc([N+](=O)[O-])c(N)c(C)c1C [4-amino-5,6-dimethyl-3-nitro-N-(β-diethylaminoethyl)aniline] | particularly harmless | –
Cc1c(NCC(O)CO)cc([N+](=O)[O-])c(N)c1C (stereo not drawn) [4-amino-5,6-dimethyl-3-nitro-N-β,γ-dihydroxypropylaniline] | particularly harmless | –
Cc1c(NCCN)cc([N+](=O)[O-])c(N)c1C [4-amino-5,6-dimethyl-3-nitro-N-β-aminoethylaniline] | particularly harmless | –
Cc1c(NCCO)cc([N+](=O)[O-])c(N)c1C [4-amino-5,6-dimethyl-3-nitro-N-β-hydroxyethylaniline] | particularly harmless | –
Cc1c(N)cc([N+](=O)[O-])c(N)c1C [5,6-dimethyl-3-nitroparaphenylenediamine] | particularly harmless | stable in the liquid composition
